Converted amounts (≈) assume the structure as drawn.
Columns and labels:
Format in all cases: cell-based
[1] = system: Fusarium moniliforme (Fm); experiment: In vitro pathogen growth inhibition assay, Fm; conditions: Fusarium verticillioides; ≥90% inhibition; 48 hours vs 2% DMSO control; read-out: Compound Concentration (ppm) sufficient for ≥90% inhibition of growth, Fm
Experimental: (§1) A growth inhibition assay was conducted to determine the ability of compounds to control the growth of fungal pathogens, such as Botrtyis cinerea (Bc), Collectotrichum graminicola (Cg), Diplodia maydis (Dm), Fusarium moniliforme (Fm), Fusarium virguliforme (Fv), Phytophthora capsici (Pc), Rhizoctonia solani (Rs), and Septoria tritici (St). The compounds listed in Table 1 were each dissolved in DMSO at 2.5 mg/ml to produce compound stock solutions (“stocks”). […] Negative controls on each plate included 2% DMSO, water, and a blank (media+2% DMSO). Fungal spores were isolated from previously sub-cultured plates of Botrtyis cinerea (Bc), Collectotrichum graminicola (Cg), Diplodia maydis (Dm), Fusarium moniliforme (Fm), Fusarium virguliforme (Fv), Phytophthora capsici (Pc), and Septoria tritici (St). The isolated spores were diluted to individual concentrations with a 17% V8 liquid media. For Rhizoctonia solani (Rs), 1.5 mm mycelial plugs were used in place of spores and ¼ Potato Dextrose Broth (PDB) was used for dilution. The spore concentrations and plug sizes were based on growth curves generated at 48 hours for each pathogen. In a second 96-well plate, the spores or mycelial plugs, media, diluted compound solutions, and controls were combined. Once the compound was added, a true final concentration of compound in each well was measured by an OD600 reading, which adjusted for any compound precipitation that might have occurred in the well. Plate readings were repeated at both 24 and 48 hours. The blank negative control was used as a background subtraction. Additional visual ratings were performed at both 24 and 48 hours for checking on precipitation and confirming efficacy. […] Both tables list the concentration of each compound that was sufficient to ≥90% inhibition of growth for each of the fungal pathogens listed above. In addition, some of compounds were tested in a yeast growth inhibition assay for Saccharomyces cerevisiae (Sc). Table 2 lists the concentration of the tested compound that was sufficient to ≥75% inhibition of Saccharomyces cerevisiae (Sc).

Diplodia maydis (Dm) = experiment: In vitro pathogen growth inhibition assay, Dm; conditions: Stenocarpella maydis, 48 h, ≥90% inhibition; 48 hours vs 2% DMSO control; read-out: Compound Concentration (ppm) sufficient for ≥90% inhibition of growth, Dm
Experimental: as §1

[2] = system: Collectotrichum graminicola (Cg); experiment: In vitro pathogen growth inhibition assay, Cg; conditions: 48 h, ≥90% inhibition; 48 hours vs 2% DMSO control; read-out: Compound Concentration (ppm) sufficient for ≥90% inhibition of growth, Cg
Experimental: as §1

Rhizoctonia solani (Rs) = experiment: In vitro pathogen growth inhibition assay, Rs (mycelial plugs); conditions: mycelial plugs; for IC90: Rhizoctonia solani, 48 h, ≥90% inhibition, 48 hours vs 2% DMSO control, read-out: Compound Concentration (ppm) sufficient for ≥90% inhibition of growth, Rs; for Compound Concentration (ppm) sufficient for ≥90% inhibition of Rs: ≥90% growth inhibition, 48 hours, vs 2% DMSO control
Experimental: as §1

[3] = system: Fusarium virguliforme (Fv); experiment: In vitro pathogen growth inhibition assay, Fv; conditions: ≥90% inhibition, 48 hours vs 2% DMSO control, read-out: Compound Concentration (ppm) sufficient for ≥90% inhibition of growth, Fv
Experimental: as §1

Septoria tritici (St) = experiment: In vitro pathogen growth inhibition assay, St; conditions: for IC90: Zymoseptoria tritici, 48 h, ≥90% inhibition, 48 hours vs 2% DMSO control, read-out: Compound Concentration (ppm) sufficient for ≥90% inhibition of growth, St; for Compound Concentration (ppm) sufficient for ≥90% inhibition of St: ≥90% growth inhibition, 48 hours, vs 2% DMSO control
Experimental: as §1

Botrtyis cinerea (Bc) = experiment: In vitro pathogen growth inhibition assay, Bc; conditions: 48 h, ≥90% inhibition; 48 hours vs 2% DMSO control; read-out: Compound Concentration (ppm) sufficient for ≥90% inhibition of growth, Bc
Experimental: as §1

[4] = system: Phytophthora capsici (Pc); experiment: In vitro pathogen growth inhibition assay, Pc; conditions: 48 h, ≥90% inhibition, 48 hours vs 2% DMSO control, read-out: Compound Concentration (ppm) sufficient for ≥90% inhibition of growth, Pc
Experimental: as §1

SMILES | IC90 [1] [µg/mL] | IC90 (Diplodia maydis (Dm)) [µg/mL] | IC90 [2] [µg/mL] | IC90 (Rhizoctonia solani (Rs)) [µg/mL] | IC90 [3] [µg/mL] | IC90 (Septoria tritici (St)) [µg/mL] | IC90 (Botrtyis cinerea (Bc)) [µg/mL] | IC90 [4] [µg/mL] | Compound Concentration (ppm) sufficient for ≥90% inhibition of Rs (Rhizoctonia solani (Rs)) [ppm] | Compound Concentration (ppm) sufficient for ≥90% inhibition of St (Septoria tritici (St)) [ppm]
COc1ccc(F)cc1[C@H](Cn1c(=O)n(C(C)(C)C(=O)N2CCCCC2)c(=O)c2c(C)c(-n3cccn3)sc21)OC(C)C [Compound I-002] | 0.08 (≈ 0.131 µM) | 0.4 (≈ 0.654 µM) | 2 (≈ 3.27 µM) | 0.4 (≈ 0.654 µM) | 0.4 (≈ 0.654 µM) | > 10 | 0.4 (≈ 0.654 µM) | > 50 | – | –
COc1ccc(F)cc1[C@H](Cn1c(=O)n(C(C)(C)C(=O)NC(C)C)c(=O)c2c(C)c(-c3ncco3)sc21)OC1CCOCC1 [Compound I-015] | 0.08 (≈ 0.127 µM) | ≥ 0.4 | 2 (≈ 3.18 µM) | 10 (≈ 15.9 µM) | 0.4 (≈ 0.636 µM) | > 10 | 0.4 (≈ 0.636 µM) | > 50 | – | –
COc1ccc(F)cc1[C@H](Cn1c(=O)n(C(C)(C)C(=O)N2CCCCC2)c(=O)c2c(C)c(-c3ncco3)sc21)OC(C)C [Compound I-016] | 0.08 (≈ 0.131 µM) | 0.4 (≈ 0.653 µM) | 2 (≈ 3.26 µM) | 0.4 (≈ 0.653 µM) | 0.4 (≈ 0.653 µM) | > 10 | 0.4 (≈ 0.653 µM) | > 50 | – | –
COc1ccc(F)cc1[C@H](Cn1c(=O)n(C(C)(C)C(=O)N2CCCC2)c(=O)c2c(C)c(-c3ncco3)sc21)OC(C)C [Compound I-017] | 0.08 (≈ 0.134 µM) | ≥ 0.08 | 0.08 (≈ 0.134 µM) | 0.4 (≈ 0.668 µM) | 0.4 (≈ 0.668 µM) | > 10 | 0.4 (≈ 0.668 µM) | > 50 | – | –
COc1ccc(F)cc1[C@H](Cn1c(=O)n(C(C)(C)C(=O)NC(C)C)c(=O)c2c(C)c(-c3ncco3)sc21)OC(C)C [Compound I-018] | 0.08 (≈ 0.136 µM) | 0.4 (≈ 0.682 µM) | 0.4 (≈ 0.682 µM) | 0.08 (≈ 0.136 µM) | 0.4 (≈ 0.682 µM) | > 10 | 0.4 (≈ 0.682 µM) | > 50 | – | –
CCNC(=O)C(C)(C)n1c(=O)c2c(C)c(-n3nccn3)sc2n(C[C@H](OC(C)C)c2cc(F)ccc2OC)c1=O [Compound I-019] | 0.08 (≈ 0.14 µM) | ≥ 0.4 | ≥ 0.4 | 0.08 (≈ 0.14 µM) | 0.4 (≈ 0.698 µM) | > 10 | ≥ 0.4 | > 50 | – | –
COc1ccc(F)cc1[C@H](Cn1c(=O)n(C(C)(C)C(=O)N2CCOCC2)c(=O)c2c(C)c(-n3nccn3)sc21)OC(C)C [Compound I-021] | 0.08 (≈ 0.13 µM) | 2 (≈ 3.25 µM) | 2 (≈ 3.25 µM) | 0.4 (≈ 0.651 µM) | 0.4 (≈ 0.651 µM) | > 10 | 0.4 (≈ 0.651 µM) | > 50 | – | –
COc1ccc(F)cc1[C@H](Cn1c(=O)n(C(C)(C)C(=O)N2CCCCC2)c(=O)c2c(C)c(-n3nccn3)sc21)OC(C)C [Compound I-022] | 0.08 (≈ 0.131 µM) | 0.08 (≈ 0.131 µM) | 0.08 (≈ 0.131 µM) | 0.08 (≈ 0.131 µM) | ≥ 0.08 | ≥ 2 | 0.08 (≈ 0.131 µM) | > 50 | – | –
COc1ccc(F)cc1[C@H](Cn1c(=O)n(C(C)(C)C(=O)N2CCCC2)c(=O)c2c(C)c(-n3nccn3)sc21)OC(C)C [Compound I-023] | 0.08 (≈ 0.134 µM) | 0.08 (≈ 0.134 µM) | 0.08 (≈ 0.134 µM) | 0.08 (≈ 0.134 µM) | ≥ 0.08 | > 10 | 0.4 (≈ 0.668 µM) | > 50 | – | –
COc1ccc(F)cc1[C@H](Cn1c(=O)n(C(C)(C)C(=O)NC(C)C)c(=O)c2c(C)c(-c3ncco3)sc21)OC1CCC(=O)CC1 [Compound I-024] | 0.08 (≈ 0.125 µM) | ≥ 2 | 2 (≈ 3.12 µM) | 0.4 (≈ 0.624 µM) | 2 (≈ 3.12 µM) | > 50 | 0.4 (≈ 0.624 µM) | > 50 | – | –
CCNC(=O)C(C)(C)n1c(=O)c2c(C)c(-n3nccn3)sc2n(C[C@H](OCC(C)C)c2cc(F)ccc2OC)c1=O [Compound I-025] | 0.08 (≈ 0.136 µM) | 0.4 (≈ 0.682 µM) | 0.4 (≈ 0.682 µM) | 0.4 (≈ 0.682 µM) | 0.4 (≈ 0.682 µM) | > 10 | 0.4 (≈ 0.682 µM) | > 50 | – | –
COc1ccc(F)cc1[C@H](Cn1c(=O)n(C(C)(C)C(=O)NC(C)C)c(=O)c2c(C)c(-n3nccn3)sc21)OCC(C)C [Compound I-026] | 0.08 (≈ 0.133 µM) | 0.08 (≈ 0.133 µM) | 0.08 (≈ 0.133 µM) | 0.4 (≈ 0.666 µM) | 0.4 (≈ 0.666 µM) | ≥ 2 | 0.4 (≈ 0.666 µM) | > 50 | – | –
COc1ccc(F)cc1[C@H](Cn1c(=O)n(C(C)(C)C(=O)N2CCCCC2)c(=O)c2c(C)c(-n3nccn3)sc21)OCC(C)C [Compound I-027] | 0.08 (≈ 0.128 µM) | 0.4 (≈ 0.638 µM) | 0.4 (≈ 0.638 µM) | 0.4 (≈ 0.638 µM) | 2 (≈ 3.19 µM) | > 10 | 0.4 (≈ 0.638 µM) | > 50 | – | –
COc1ccc(F)cc1[C@H](Cn1c(=O)n(C(C)(C)C(=O)N2CCCC2)c(=O)c2c(C)c(-n3nccn3)sc21)OCC(C)C [Compound I-028] | 0.08 (≈ 0.131 µM) | ≥ 0.08 | 0.08 (≈ 0.131 µM) | 0.08 (≈ 0.131 µM) | 0.4 (≈ 0.653 µM) | ≥ 2 | 0.4 (≈ 0.653 µM) | > 50 | – | –
COc1ccccc1[C@H](Cn1c(=O)n(C(C)(C)C(=O)NC(C)C)c(=O)c2c(C)c(-n3nccn3)sc21)OC1CCOCC1 [Compound I-029] | 0.08 (≈ 0.131 µM) | ≥ 2 | ≥ 2 | 0.4 (≈ 0.655 µM) | 0.4 (≈ 0.655 µM) | > 10 | 0.4 (≈ 0.655 µM) | 50 (≈ 81.9 µM) | – | –
CCOC(=O)c1sc2c(c1C)c(=O)n(C(C)(C)C(=O)NC(C)C)c(=O)n2C[C@H](OCCC#N)c1cc(F)ccc1OC [Compound I-300] | – | – | – | – | – | – | – | – | 0.08 | >50
CCOC(=O)c1sc2c(c1C)c(=O)n([C@H](C)C(=O)NC(C)C)c(=O)n2C[C@H](OCCC#N)c1cc(F)ccc1OC [Compound I-330] | – | – | – | – | – | – | – | – | 2 | >50
